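Step 1: Grow cells in 96-well plates. Step 2: Expose to compound for 48 hours at 5 concentrations. Step 3: Interpolate endpoints linearly; if unreached, use highest concentration. Definition used: TGI = concentration required for complete inhibition of growth.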

We go through 18 compounds from PubChem BioAssay (NCI).

For the first assay, the system named is HCT-116 colon. The experiment in a line: NCI tumour cell line growth inhibition, 48 h.
Consider `O=C1CS(=O)(=O)C(c2cccc(Oc3ccccc3)c2)N1c1ccc(Cl)cc1` (configuration not stated), for which the TGI worked out at 22.6 µM.
With `Cc1n(CC(C)C)c2c([n+]1C)C(=O)c1ccccc1C2=O`, the TGI stood at 0.23 µM.
Still for that read-out and setting: then `Cc1cccc(Cl)c1NCC(O)CN1CCN(C)CC1` (configuration not stated), with over 100 µM; and `C=C(CCOC)CCC1CCCCC(CN(C)C)C1=O` (configuration not stated), with over 100 µM.
Still for that read-out and setting: with `ONC1=Nc2cc(Cl)ccc2C(=S)N2CSCC12` (configuration not stated) the figure was over 100 µM; with `Cc1nc2ccc(Br)cc2c(=O)n1-c1nnc(C(C)(C)C)s1`, over 10 µM; with `COc1cc2c(cc1O)c(O)cc1c3cc(OC)c(OC)cc3c[n+](C)c21`, over 100 µM.
Same read-out and setting: then `CCOC(=O)c1sc(=S)n(-c2ccc(Cl)cc2)c1-n1cc(-c2ccccc2)c(C#N)c1N`, with over 100 µM; and `COC1(OC)N=C(N)C2(C#N)C(c3ccccc3)NC3=C(CCC3)C12C#N` (configuration not stated), with over 100 µM.
`NC(N)=NS(=O)(=O)c1ccc(NNc2c3ccccc3nc3ccccc23)cc1` showed a TGI of 32.8 µM.
Same read-out and setting: then `COC(=O)[C@@H]1C[C@H]2OC(=O)CC[C@]2(C)O[C@H]1[C@H]1O[C@@](C)(O)CCC[C@H]1C`, with over 50 µM; and `CC(C)CCNC(=O)c1ccc(CNC(=O)/C=C/c2cccc(Oc3ccccc3)c2)cc1`, with over 100 µM; and `COc1cc2c(cc1OCCCCCCCCCCN1C(=O)c3cccc4cccc(c34)C1=O)N=C[C@@H]1CCCN1C2=O`, with over 100 µM.
The same measure, in the same setting: with `COc1ccc(Cn2c(=O)c(OC)c(C)c3cc4ccccc4cc32)cc1` the figure was 43 µM; with `CCOC(=O)Nc1cc2c(c(N)n1)N=C(c1ccc(OC)cc1)CN2`, 1.31 µM.
`O=C1NC(=S)N/C1=C\c1cccs1` showed a TGI of over 100 µM.
Same read-out and setting: then `CC(C)(C)C1CCC(=O)/C(=C/CC2CC(=O)N(c3ccccc3)C(=O)C2)C1` (configuration not stated), with 29.3 µM; and `C[C@@H](C(=O)O)N1C(c2ccco2)=C(/C(C=O)=C\c2ccco2)C(=O)/C1=C\c1ccco1`, with over 100 µM.

The subject of a further assay is HOP-62 NSCLC. Put plainly: NCI tumour cell line growth inhibition, 48 h.
The compound `O=C1CS(=O)(=O)C(c2cccc(Oc3ccccc3)c2)N1c1ccc(Cl)cc1` (configuration not stated) registered a TGI of over 100 µM.
The same measure, in the same setting: with `Cc1n(CC(C)C)c2c([n+]1C)C(=O)c1ccccc1C2=O` the figure was 0.76 µM.
`Cc1cccc(Cl)c1NCC(O)CN1CCN(C)CC1` (configuration not stated) gave a TGI of over 100 µM.
Compound `C=C(CCOC)CCC1CCCCC(CN(C)C)C1=O` (configuration not stated) yielded a TGI of over 100 µM.
The same measure, in the same setting: with `ONC1=Nc2cc(Cl)ccc2C(=S)N2CSCC12` (configuration not stated) the figure was over 100 µM.
`Cc1nc2ccc(Br)cc2c(=O)n1-c1nnc(C(C)(C)C)s1`: the TGI is over 10 µM.
The same measure, in the same setting: with `COc1cc2c(cc1O)c(O)cc1c3cc(OC)c(OC)cc3c[n+](C)c21` the figure was over 100 µM; with `CCOC(=O)c1sc(=S)n(-c2ccc(Cl)cc2)c1-n1cc(-c2ccccc2)c(C#N)c1N`, 14.7 µM; with `COC1(OC)N=C(N)C2(C#N)C(c3ccccc3)NC3=C(CCC3)C12C#N` (configuration not stated), over 100 µM.
On the same count and under the same terms, with `NC(N)=NS(=O)(=O)c1ccc(NNc2c3ccccc3nc3ccccc23)cc1` the figure was 40.1 µM.
Same read-out and setting: then `COC(=O)[C@@H]1C[C@H]2OC(=O)CC[C@]2(C)O[C@H]1[C@H]1O[C@@](C)(O)CCC[C@H]1C`, with over 50 µM; and `CC(C)CCNC(=O)c1ccc(CNC(=O)/C=C/c2cccc(Oc3ccccc3)c2)cc1`, with 53.3 µM.
Take `COc1cc2c(cc1OCCCCCCCCCCN1C(=O)c3cccc4cccc(c34)C1=O)N=C[C@@H]1CCCN1C2=O`: the TGI is over 100 µM.
Still for that read-out and setting: with `COc1ccc(Cn2c(=O)c(OC)c(C)c3cc4ccccc4cc32)cc1` the figure was over 100 µM.
Same read-out and setting: then `CCOC(=O)Nc1cc2c(c(N)n1)N=C(c1ccc(OC)cc1)CN2`, with 1.49 µM; and `O=C1NC(=S)N/C1=C\c1cccs1`, with over 100 µM.
On the same count and under the same terms, then `CC(C)(C)C1CCC(=O)/C(=C/CC2CC(=O)N(c3ccccc3)C(=O)C2)C1` (configuration not stated), with 72.8 µM; and `C[C@@H](C(=O)O)N1C(c2ccco2)=C(/C(C=O)=C\c2ccco2)C(=O)/C1=C\c1ccco1`, with over 100 µM.

The next assay relates to HT29 colon. The experiment in a line: NCI tumour cell line growth inhibition, 48 h.
The compound `O=C1CS(=O)(=O)C(c2cccc(Oc3ccccc3)c2)N1c1ccc(Cl)cc1` (configuration not stated) displayed a TGI of over 100 µM.
Take `Cc1n(CC(C)C)c2c([n+]1C)C(=O)c1ccccc1C2=O`: the TGI is 1.03 µM.
On the same count and under the same terms, then `Cc1cccc(Cl)c1NCC(O)CN1CCN(C)CC1` (configuration not stated), with over 100 µM; and `C=C(CCOC)CCC1CCCCC(CN(C)C)C1=O` (configuration not stated), with over 100 µM.
The same measure, in the same setting: with `ONC1=Nc2cc(Cl)ccc2C(=S)N2CSCC12` (configuration not stated) the figure was over 100 µM.
The same measure, in the same setting: with `Cc1nc2ccc(Br)cc2c(=O)n1-c1nnc(C(C)(C)C)s1` the figure was over 10 µM.
On to `COc1cc2c(cc1O)c(O)cc1c3cc(OC)c(OC)cc3c[n+](C)c21`, for which the TGI is over 61.4 µM.
Same read-out and setting: with `CCOC(=O)c1sc(=S)n(-c2ccc(Cl)cc2)c1-n1cc(-c2ccccc2)c(C#N)c1N` the figure was over 100 µM; with `COC1(OC)N=C(N)C2(C#N)C(c3ccccc3)NC3=C(CCC3)C12C#N` (configuration not stated), over 100 µM.
On the same count and under the same terms, then `NC(N)=NS(=O)(=O)c1ccc(NNc2c3ccccc3nc3ccccc23)cc1`, with 27.2 µM; and `COC(=O)[C@@H]1C[C@H]2OC(=O)CC[C@]2(C)O[C@H]1[C@H]1O[C@@](C)(O)CCC[C@H]1C`, with over 50 µM.
On the same count and under the same terms, with `CC(C)CCNC(=O)c1ccc(CNC(=O)/C=C/c2cccc(Oc3ccccc3)c2)cc1` the figure was over 100 µM; with `COc1cc2c(cc1OCCCCCCCCCCN1C(=O)c3cccc4cccc(c34)C1=O)N=C[C@@H]1CCCN1C2=O`, 29.3 µM; with `COc1ccc(Cn2c(=O)c(OC)c(C)c3cc4ccccc4cc32)cc1`, over 100 µM.
As for `CCOC(=O)Nc1cc2c(c(N)n1)N=C(c1ccc(OC)cc1)CN2`, the TGI stood at 0.321 µM.
Still for that read-out and setting: then `O=C1NC(=S)N/C1=C\c1cccs1`, with over 100 µM.
With `CC(C)(C)C1CCC(=O)/C(=C/CC2CC(=O)N(c3ccccc3)C(=O)C2)C1` (configuration not stated), the TGI turned out to be 43.6 µM.
The same measure, in the same setting: with `C[C@@H](C(=O)O)N1C(c2ccco2)=C(/C(C=O)=C\c2ccco2)C(=O)/C1=C\c1ccco1` the figure was over 100 µM.

A further assay has as its system KM12 colon. The experiment in a line: NCI tumour cell line growth inhibition, 48 h.
`O=C1CS(=O)(=O)C(c2cccc(Oc3ccccc3)c2)N1c1ccc(Cl)cc1` (configuration not stated): the TGI was over 100 µM.
`Cc1n(CC(C)C)c2c([n+]1C)C(=O)c1ccccc1C2=O` yielded a TGI of 1.6 µM.
Same read-out and setting: with `Cc1cccc(Cl)c1NCC(O)CN1CCN(C)CC1` (configuration not stated) the figure was over 100 µM; with `C=C(CCOC)CCC1CCCCC(CN(C)C)C1=O` (configuration not stated), over 100 µM.
Take `ONC1=Nc2cc(Cl)ccc2C(=S)N2CSCC12` (configuration not stated): the TGI is over 100 µM.
`Cc1nc2ccc(Br)cc2c(=O)n1-c1nnc(C(C)(C)C)s1`: the TGI was over 10 µM.
Still for that read-out and setting: with `COc1cc2c(cc1O)c(O)cc1c3cc(OC)c(OC)cc3c[n+](C)c21` the figure was over 100 µM; with `CCOC(=O)c1sc(=S)n(-c2ccc(Cl)cc2)c1-n1cc(-c2ccccc2)c(C#N)c1N`, over 100 µM; with `COC1(OC)N=C(N)C2(C#N)C(c3ccccc3)NC3=C(CCC3)C12C#N` (configuration not stated), over 100 µM.
Compound `NC(N)=NS(=O)(=O)c1ccc(NNc2c3ccccc3nc3ccccc23)cc1` had a TGI of 28.6 µM.
The same measure, in the same setting: with `COC(=O)[C@@H]1C[C@H]2OC(=O)CC[C@]2(C)O[C@H]1[C@H]1O[C@@](C)(O)CCC[C@H]1C` the figure was over 50 µM.
On the same count and under the same terms, then `CC(C)CCNC(=O)c1ccc(CNC(=O)/C=C/c2cccc(Oc3ccccc3)c2)cc1`, with over 100 µM; and `COc1cc2c(cc1OCCCCCCCCCCN1C(=O)c3cccc4cccc(c34)C1=O)N=C[C@@H]1CCCN1C2=O`, with 50.2 µM.
